Reference: patent publication US7354949B2, “Therapeutic agent for bladder irritative symptoms associated with benign prostatic hyperplasia” (Kyowa Hakko Kogyo Co., Ltd., priority 2001, dated 2008)

Key:
[1] = test system: rats with partial urethral obstruction; test: Inhibitory activity on urinary frequency due to partial urethral obstruction (micturition test in metabolic cages); format: in vivo, rat
Description: (§1) The experiment was carried out according to the method of Saito, et al. [J. Urol., Vol. 150, pp. 1045-1051 (1993)].
(§2) Male SD rats of 8 to 9 weeks of age (supplied by Japan SLC) were used in the test. Five to seven animals of these rats were put in each metal cage and reared by allowing them to freely take commercially available chow and water, in an animal room at room temperature between 19 and 25° C. and humidity between 30 and 70% under illumination for 12 hours (from 7:00 a.m. to 7:00 p.m.) per day.
The rats were subjected to operation of partial urethral obstruction. Each rat was anesthetized by intraperitoneal administration of 50 mg/kg pentobarbital sodium (Dainippon Pharmaceutical Co., Ltd.) and placed in the supine position. The abdominal midline incision was made in a length of about 1 cm to expose the bladder, prostate and the urethra. After the bladder neck and base were peeled from the prostate, two surgical suture threads (No. 3, Natsume Seisakusho Co., Ltd.) were passed behind the urethral base. A polyethylene tube (PE-200, Nippon Becton Dickinson Co., Ltd.) was placed along the urethra, and the urethra was loosely double-ligated together with the tube. The ligation was made in such a manner that the urethra was not pressed with the polyethylene tube and the suture was not slack. Then, the polyethylene tube was pulled out and the urethra was partially obstructed. The incised part of abdomen was sutured with a surgical thread.
Five to seven days after the partial urethral obstruction operation, the rats with partial urethral obstruction and the sham-operated rats were put in metabolic cages (KN-649, Natsume Seisakusho Co., Ltd.). For acclimation, the rats were reared for one day with free drinking and feeding, and the micturition test was started the following day. The amount of urination in the rats was continuously measured as the weight using an electronic balance (HF-200, A & D Company Ltd.), and was recorded on a thermal array recorder (RTA-1200, Nihon Kohden Corp.) via a direct current amplifier (AD-601G, Nihon Kohden Corp.). The data were collected during the light period under illumination (9:00-18:00) and the dark period without illumination (19:00-4:00), and the number of micturitions and the micturition volume in each period were measured to calculate the urinary frequency (the number of micturitions per 9 hours), the voided volume per micturition and the total urine volume as the measurement parameters. The voided volume per micturition was calculated by dividing the total urine volume per 9 hours by the urinary frequency per 9 hours. On the next day, a test compound or a vehicle (0.5 w/v% aqueous methylcellulose 400 cP solution) was orally administered twice (between 8:00 and 9:00, and between 18:00 and 19:00). The number of micturitions and the urine volume were measured from 9:00 to 18:00 and from 19:00 to 4:00 in the same manner as on the previous day to obtain the measurement values. The changes in the values of each parameter induced by the administration of the compound were also calculated. In the sham-operated group, the urinary frequency, the voided volume per micturition and the total urine volume obtained on the first day of the micturition test were compared with those in the groups of partial urethral obstruction. The average±standard error of the urinary frequency, voided volume per micturition and the total urine volume was calculated for each group.

[2] = test system: dd male mice; test: Acute toxicity test; format: in vivo; settings: oral administration, mortality on the seventh day
Description: The test compound was administered orally or intraperitoneally to animals per group of dd male mice (body weight: 20±1 g). The minimum lethal dose (MLD) value was obtained by observing mortality on the seventh day after the administration.

[3] = test system: rats with partial urethral obstruction; test: Activity to increase the bladder capacity of rats with partial urethral obstruction (intravesical saline infusion); format: in vivo, rat; settings: summary of Test Example 2
Description: as §1
as §2, with “to seven rats were” for “to seven animals of these rats were”, “room at a room temperature” for “room at room temperature”
The rats were subjected to operation of partial urethral obstruction. […]
Five to seven days after the operation of the partial urethral obstruction and the catheter implantation, the rats with partial urethral obstruction and the sham-operated rats were put in Bollman cages (KN-326-1, Natsume Seisakusho Co., Ltd.) under restraint. […] One end of the cock was connected to a pressure transducer (DX-360, Nihon Kohden Corp.), and the intravesical pressure signal was amplified via a strain pressure amplifier (AP-601G, Nihon Kohden Corp.), measured with a polygraph (RMP-6008, Nihon Kohden Corp.) and recorded on a thermal array recorder (RTA-1200, Nihon Kohden Corp.). […] The bladder capacity was calculated from the period of time until occurrence of micturition (infusion rate 6 ml/h×infusion time). […]

[4] = Dark period (Active period), after oral administration
[5] = Dark period (Active period), before administration
[6] = Light period (Inactive period), after oral administration
[7] = Light period (Inactive period), before administration

With C[C@](O)(C(=O)Nc1cccc2c1C(=O)c1sccc1CS2(=O)=O)C(F)(F)F [Compound 1, (S)-(+)-N-(5,5-dioxido-10-oxo-4,10-dihydrothieno[3,2-c][1]benzothiepin-9-y1)-3,3,3-trifluoro-2-hydroxy-2-methylpropanamide] the Total urine volume [1, 4] was 4.83 ± 0.83 mL/9 hours, the Urinary frequency [1, 4] was 6.7 ± 1.2 micturitions/9 hours and the Total urine volume [1, 5] was 3.57 ± 0.57 mL/9 hours. For the same compound, the Urinary frequency [1, 5] was 10.0 ± 1.3 micturitions/9 hours, the Total urine volume [1, 6] was 4.76 ± 0.78 mL/9 hours and the Urinary frequency [1, 6] was 5.3 ± 0.4 micturitions/9 hours. For the same compound, the Total urine volume [1, 7] was 4.80 ± 0.31 mL/9 hours, the Urinary frequency [1, 7] was 8.7 ± 0.8 micturitions/9 hours and the “effect on urinary frequency (in words)” value ([1]; summary of Test Example 1) was “significantly decreased”. The “effect on voided volume per micturition (in words)” value ([1]; summary of Test Example 1) was “tended to increase”, the “minimum lethal dose (MLD)” value [2] was greater than 1000 mg/kg and the “effect on bladder capacity (in words)” value [3] was “tended to increase”. For the same compound, the “effect on micturition volume (in words)” value [3] was “significantly increased”.
